Laboratory results taken from publication PMC11378297, “Discovery and Profiling of New Multimodal Phenylglycinamide Derivatives as Potent Antiseizure and Antinociceptive Drug Candidates” (ACS Chemical Neuroscience, 2024).

Legend:
HepG2 cell line = assay: hepatotoxicity, HepG2 cell viability; format: cell-based, human; conditions: 25 μM, 72 h of incubation (Figure 11)
Experimental: The hepatotoxicity potential was assessed with the HepG2 cell line and the reference cytostatic drug doxorubicin.
The results are presented as means + SD. Statistical significance was evaluated by one-way ANOVA, followed by Bonferroni’s multiple comparison post hoc test (Graph Pad Prism 8.0.1 software, San Diego, CA, USA): *p < 0.05, ***p < 0.001, ****p < 0.0001 vs negative control (DMSO 1% in growth media).

[1] = PAMPA (Precoated PAMPA Plate System Gentest) passive permeability; format: in vitro ADME
[2] = tested on: glutamate and GABA concentrations in brain; assay: glutamate and GABA concentrations in hippocampus and cortex of PTZ-kindled mice; format: in vivo, mouse
Excerpt: After behavioral tests (FST, PTZ-induced kindling), we determined the changes in glutamate and GABA concentrations in the hippocampus and cortex. Since exposure to the FST can evoke various neurochemical alterations, two additional groups were employed in this experiment, i.e., control nonkindled mice that were exposed to the FST and naïve mice. No marked differences in both glutamate and GABA concentrations in the hippocampus were observed (Figure 5A). […] We found a significant increase in glutamate concentration in the cortex of mice subjected to the FST (p < 0.05 vs naive mice). […] Given that seizures are typically accompanied by elevated extracellular glutamate levels (an excitatory neurotransmitter), a decreased glutamate concentration in the cortex of kindled animals may appear to be an unexpected outcome. It should be highlighted, however, that the concentrations of glutamate and GABA in tissue homogenates rather than dialysate were measured in brain samples acquired 24 h following the previous PTZ dose, which may have an impact on the outcomes. On the other hand, decreased glutamate levels could be caused by the up-regulation of glutamate transporters, as the expression of glutamate transporters can increase following seizures.[48] For example, an increased expression of hippocampal GLT-1 was observed 24 h after kainic acid-induced status epilepticus in mice and PTZ-induced kindling in rats.[49] Moreover, similar to our findings, Szyndler et al.([50]) found decreased glutamate concentrations, with no changes in GABA concentrations, in homogenates of the hippocampus, striatum, and prefrontal cortex of PTZ-kindled rats.
Figure 5 Changes in glutamate and GABA concentrations in the hippocampus (A) and cortex (B). Data are shown as means + SD (n = 9–14 animals). Statistical significance was evaluated by one-way ANOVA followed by Tukey’s post hoc test: *p < 0.05, **p < 0.01, ***p < 0.001 (GraphPad Prism 8.4.3).
GABA and glutamate concentrations were determined using liquid chromatography tandem mass spectrometry (LC-MS/MS) in the mouse prefrontal cortex and hippocampus. Toronto Research Chemicals Inc. was the source of the standards for both analytes (Toronto, ON, Canada). GABA and glutamate stock standard solutions were made in methanol and deionized water, respectively, and kept cold at 4 °C. The stock solutions were suitably diluted to create a range of solution combinations with the appropriate concentrations. Prior to analysis, a hand-held pestle and glass tube homogenizer (Potter–Elvehjem PTFE pestle and glass tube, Sigma-Aldrich, St. Louis, MO, USA) were used to homogenize mouse brains in distilled water at a ratio of 50 μL/mg. Following a 10 min centrifugation at 8000g for 10 min at 4 °C, homogenates were diluted 10 times with 0.1% formic acid in MeCN from the supernatant. Samples (10 μL) were deproteinized with 80 μL of 0.1% formic acid in MeCN by shaking for 10 min (IKA Vibrax VXR, IKA Werke GmbH & Co. KG, Staufen im Breisgau, Germany) and centrifuged for 5 min at the speed of 8000g (Eppendorf miniSpin centrifuge) after isotope-labeled GABA-d6 and glutamate-d5 (Toronto Research Chemicals Inc., Toronto, ON, Canada) were added as internal standards (10 μL at the concentration of 500 ng/mL). The autosampler vials were filled with the acquired supernatants. […]

CYP3A4 = target: T1, CYP3A4 (Homo sapiens, UniProt P08684); assay: CYP3A4 P450-Glo assay; format: in vitro ADME; conditions: 10 μM
T1 construct: purchased Promega (Madison, WI, USA)
T1 sequence (P08684 whole entry): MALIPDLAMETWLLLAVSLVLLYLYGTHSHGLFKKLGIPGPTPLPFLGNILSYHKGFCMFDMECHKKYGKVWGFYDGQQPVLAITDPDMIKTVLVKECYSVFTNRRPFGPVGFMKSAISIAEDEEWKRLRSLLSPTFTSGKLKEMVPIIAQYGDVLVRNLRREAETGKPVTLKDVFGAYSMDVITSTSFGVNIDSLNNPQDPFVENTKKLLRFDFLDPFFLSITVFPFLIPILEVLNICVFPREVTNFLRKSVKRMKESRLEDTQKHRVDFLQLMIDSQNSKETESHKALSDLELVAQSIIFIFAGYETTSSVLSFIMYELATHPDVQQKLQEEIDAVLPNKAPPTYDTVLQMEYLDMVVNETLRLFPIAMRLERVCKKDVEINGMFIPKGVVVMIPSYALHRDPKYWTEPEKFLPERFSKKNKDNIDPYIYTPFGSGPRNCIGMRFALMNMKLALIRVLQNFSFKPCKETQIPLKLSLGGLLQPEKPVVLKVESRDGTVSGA
Experimental: The inhibition effect of enantiomers on CYP2C9 was also determined, but only at the highest concentrations (Figure 10C). In summary, the potential for DDIs of the tested enantiomers in comparison to the reference CYP inhibitors was estimated as very low.
Figure 10 Influence of (R)-31, (R)-32, and (R)-33 on: CYP3A4 activity (A) and the reference inhibitor ketoconazole (KE), CYP2D6 activity (B) and the reference inhibitor quinidine (QD), CYP2C9 activity (C) and the reference inhibitor sulfaphenazole (SE). The results are presented as means + SD. Statistical significance was evaluated by one-way ANOVA, followed by Bonferroni’s multiple comparison post hoc test (Graph Pad Prism 8.0.1 software) *p < 0.05, **p < 0.01, ***p < 0.001, ****p < 0.0001.
All assays and protocols used for the evaluation of compounds ADME-Tox parameters were described previously.[35]−[38],[95]−[98] […] The vitality of the cells was assessed using the CellTiter 96 AQueous Non-Radioactive Cell Proliferation Assay (Promega, Madison, WI, USA), following a 48 h incubation period with either the reference medication, doxorubicin (DOX), or serial dilutions of the investigated compounds. Using an EnSpire PerkinElmer microplate reader (Waltham, MA, USA), the luminescent signal and absorbances (measured at 490 nm) in DDIs and safety assays were determined. […]

For `CC(=O)N[C@@H](C(=O)N1CCN(c2cccc(SC(F)(F)F)c2)CC1)c1ccccc1` [(R)-33, (R)-N-(2-Oxo-1-phenyl-2-(4-(3-((trifluoromethyl)thio)phenyl)piperazin-1-yl)ethyl)acetamide], the HepG2 cell viability (HepG2 cell line) was “reduced slightly, but statistically significant cell viability”.
In the case of `CC(=O)N[C@@H](C(=O)N1CCN(c2cccc(OC(F)(F)F)c2)CC1)c1ccccc1` [(R)-32, (R)-N-(2-Oxo-1-phenyl-2-(4-(3-(trifluoromethoxy)phenyl)piperazin-1-yl)ethyl)acetamide], the “Pe relative to that of caffeine” value [1] was “approximately 70%”, the Papp ([1]; passive blood–brain barrier permeability model, read-out: permeability coefficient (Pe)) was 2.42 ×10⁻⁶ cm/s and the “GABA concentration in the cortex” value ([2]; 80 mg/kg, p < 0.001 vs PTZ-kindled control group) was “significantly decreased”. The “glutamate concentration in the cortex (PTZ-kindling-induced decrease)” value ([2]; 80 mg/kg, p < 0.01 vs PTZ-kindled control group) was “reversed this effect” and the “glutamate concentration in the hippocampus” value ([2]; vs nonkindled FST control group) was “slight decrease”.
In the case of `CC(=O)N[C@@H](C(=O)N1CCN(c2cccc(C(F)(F)F)c2)CC1)c1ccccc1` [(R)-31, (R)-N-(2-Oxo-1-phenyl-2-(4-(3-(trifluoromethyl)phenyl)piperazin-1-yl)ethyl)acetamide], the “effect on CYP3A4 activity” value (CYP3A4) was “significantly inhibited”.
